Experiments:
[1] = target: T1, transient receptor potential vanilloid-1 (TRPV1) (Rattus norvegicus, UniProt O35433); assay: intracellular Ca2+ (Fluo-4) assay in HEK-293 cells expressing rat TRPV1; much lower effect, if any, in wild-type cells or after I-RTX; assay type: cell-based
T1 construct: rat recombinant TRPV1 stably expressed in HEK-293 cells

[2] = target: T1, transient receptor potential vanilloid-1 (TRPV1); assay: intracellular Ca2+ (Fluo-4) assay in HEK-293 cells expressing rat TRPV1; assay type: cell-based

T1 sequence (O35433 whole entry): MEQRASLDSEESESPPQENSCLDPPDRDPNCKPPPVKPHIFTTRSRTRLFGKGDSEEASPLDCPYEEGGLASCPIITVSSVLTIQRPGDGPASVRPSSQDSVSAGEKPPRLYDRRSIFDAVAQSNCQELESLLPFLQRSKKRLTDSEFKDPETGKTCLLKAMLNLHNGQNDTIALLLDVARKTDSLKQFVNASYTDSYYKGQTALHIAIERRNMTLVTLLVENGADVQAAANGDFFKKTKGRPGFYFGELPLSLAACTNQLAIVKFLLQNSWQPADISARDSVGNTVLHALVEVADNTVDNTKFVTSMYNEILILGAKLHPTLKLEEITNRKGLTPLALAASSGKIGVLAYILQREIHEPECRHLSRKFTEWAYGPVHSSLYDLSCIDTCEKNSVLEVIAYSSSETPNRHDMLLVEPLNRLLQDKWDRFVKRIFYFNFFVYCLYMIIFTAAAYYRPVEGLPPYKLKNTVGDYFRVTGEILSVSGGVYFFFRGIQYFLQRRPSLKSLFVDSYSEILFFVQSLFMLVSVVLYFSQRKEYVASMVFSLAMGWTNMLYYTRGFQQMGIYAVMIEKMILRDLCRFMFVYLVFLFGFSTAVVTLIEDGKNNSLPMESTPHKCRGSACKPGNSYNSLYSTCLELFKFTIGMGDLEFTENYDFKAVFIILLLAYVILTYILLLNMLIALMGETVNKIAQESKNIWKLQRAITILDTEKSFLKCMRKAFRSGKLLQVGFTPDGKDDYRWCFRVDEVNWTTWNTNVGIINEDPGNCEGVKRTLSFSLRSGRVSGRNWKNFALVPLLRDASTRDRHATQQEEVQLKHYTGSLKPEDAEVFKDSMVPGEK

Row | SMILES | EC50 [1] [µM] | EC50 [2] [µM]
1 | CCCCC[C@H](O)/C=C/C=C\C/C=C\C/C=C\CCCC(=O)NCCO [15S-HAEA, 15(S)-hydroxy-AEA] | 11.3 ± 0.9 | –
2 | CCCCC/C=C\C/C=C\C/C=C\C/C=C\CCCC(=O)NCCO [AEA, anandamide] | – | 0.24 ± 0.03

Reference: article PMC3616060, “Full Inhibition of Spinal FAAH Leads to TRPV1-Mediated Analgesic Effects in Neuropathic Rats and Possible Lipoxygenase-Mediated Remodeling of Anandamide Metabolism” (PLoS ONE, 2013)
